Values after ≈ are worked out from the molar mass of the structure shown.
Assays:
VZV strain Ellen = assay: VZV Antiviral (ELISA) assay; format: cell-based; details: for IC50 (ug/ml) VZV / % inhibition 10 ug/ml VZV: VZV strain Ellen in HFF cells; for % inhibition 10 ug/ml VZV: at 10 ug/ml; for IC50: Human alphaherpesvirus 3, VZV strain Ellen in HFF cells, read-out: IC50 (ug/ml) VZV; for inhibition at 10 µg/mL: Human alphaherpesvirus 3, read-out: % inhibition 10 ug/ml VZV, at 10 ug/ml, VZV strain Ellen in HFF cells
Procedure, shortened: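 Cell-based VZV (Ellen) spread assay in HFF, 3-day compound exposure in 2% FBS medium. Viral antigen quantified by fluorescent β-galactosidase ELISA; IC50 from inhibition of signal.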

HSV-1 = assay: HSV Antiviral (ELISA) assay; format: cell-based; details: for IC50 (ug/ml) HSV: HSV-1 in Vero cells; for IC50: Human alphaherpesvirus 1, HSV-1 in Vero cells, read-out: IC50 (ug/ml) HSV
Procedure, shortened: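 Replication measured as glycoprotein D signal in fixed cells: anti-gD antibody plus β-galactosidase-linked secondary, fluorogenic substrate read at 365/450 nm. Vero cells (2% FBS DMEM) received compound 30 min pre-infection, HSV-1 MOI 0.006, ~24 h incubation; IC50 relative to no-compound fluorescence.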

[1] = test system: HCMV recombinant mutant virus (RV145); assay: HCMV microtiter plate assay (beta-glucuronidase reporter); format: cell-based, Human Cytomegalovirus; details: for IC50 (ug/ml) HCMV: HCMV in human foreskin fibroblasts; for IC50: Human betaherpesvirus 5, Fibroblast, read-out: IC50 (ug/ml) HCMV
Procedure, shortened: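 Replication was read out as virus-encoded β-glucuronidase activity, measured with a chromogenic or fluorogenic glucuronide substrate in cell lysates at 96 h post-infection. Infection of human foreskin fibroblasts with RV145 took place with compound present. IC50 was derived from a range of inhibitor amounts.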

| SMILES | IC50 (ug/ml) VZV (VZV strain Ellen) | % inhibition 10 ug/ml VZV (VZV strain Ellen) | IC50 (ug/ml) HSV (HSV-1) | IC50 (ug/ml) HCMV [1] | IC50 (VZV strain Ellen) | IC50 (HSV-1) | IC50 [1] | inhibition at 10 µg/mL (VZV strain Ellen) |
| --- | --- | --- | --- | --- | --- | --- | --- | --- |
| COc1cc(OC)c(NC(=S)Nc2ccc(NC(=O)c3cc(Br)co3)cc2)cc1Cl [Example 169] | >10 µg/mL | 26% | 3 µg/mL (≈ 5.87 µM) | 4 µg/mL (≈ 7.83 µM) |  |  |  |  |
| CCCCc1nc(C(=O)Nc2ccc(NC(=S)Nc3cc(Cl)cc(Cl)c3)cc2)cs1 [Example 1136, 2-Butyl-thiazole-4-carboxylic acid {4-[3-(3,5-dichloro-phenyl)-thioureido]-phenyl}-amide] |  |  |  |  | 5 µg/mL (≈ 10.4 µM) | 2.9 µg/mL (≈ 6.05 µM) | 1.6 µg/mL (≈ 3.34 µM) |  |
| O=C(Nc1ccc(NC(=S)NCCOc2ccccc2)cc1)c1ccco1 [Example 626] | >10 µg/mL |  | 10 µg/mL (≈ 26.2 µM) | 0.07 µg/mL (≈ 0.184 µM) |  |  |  |  |
| O=C(Nc1ccc(NC(=S)Nc2ccc(Cl)c(Cl)c2)cc1)c1csc(-c2ccccc2)n1 [Example 1143, 2-Phenyl-thiazole-4-carboxylic acid {4-[3-(3,4-dichloro-phenyl)-thioureido]-phenyl}-amide] |  |  |  |  | > 10 µg/mL | > 10 µg/mL | 7.5 µg/mL (≈ 15 µM) |  |
| O=C(Nc1ccc(NC(=S)Nc2ccc(Cl)c(C(F)(F)F)c2)cc1)c1ccccn1 [Example 379] | >10 µg/mL | 27% | >10 µg/mL | >10 µg/mL |  |  |  |  |
| Nc1cc(Cl)cc(NC(=S)Nc2ccc(NC(=O)c3ccco3)cc2)c1 [Example 435] | 0.9 µg/mL (≈ 2.33 µM) | 94% | 10 µg/mL (≈ 25.8 µM) | 0.08 µg/mL (≈ 0.207 µM) |  |  |  |  |
| O=C(Nc1ccc(NC(=S)Nc2ccc(F)c(Cl)c2)cc1)c1ccccc1F [Example 972, N-{4-[3-(3-Chloro-4-fluoro-phenyl)-thioureido]-phenyl} -2-fluoro-benzamide] |  |  |  |  | > 15 µg/mL | > 10 µg/mL | 0.006 µg/mL (≈ 0.0144 µM) | 95% |
| O=C(Nc1ccc(NC(=S)Nc2ccc(Cl)nc2)cc1)c1ccco1 [Example 445] | >10 µg/mL |  | 10 µg/mL (≈ 26.8 µM) | 0.15 µg/mL (≈ 0.402 µM) |  |  |  |  |
| O=C(Nc1ccc(NC(=S)NCCc2cccc(Cl)c2)cc1)c1ccco1 [Example 564] | 5 µg/mL (≈ 12.5 µM) |  | >10 µg/mL | 0.027 µg/mL (≈ 0.0675 µM) |  |  |  |  |
| COc1cc(OC)c(NC(=S)Nc2ccc(NC(=O)c3cccnc3)cc2)cc1Cl [Example 160] | >10 µg/mL | 27% | 2.5 µg/mL (≈ 5.64 µM) | >10 µg/mL |  |  |  |  |
| COc1cc(C)c(Cl)cc1NC(=S)Nc1ccc(NC(=O)c2csnn2)cc1 [Example 907, [1,2,3]Thiadiazole-4-carboxylic acid {4-[3-(5-chloro-2-methoxy-4-methyl-phenyl)-thioureido]-phenyl}-amide] |  |  |  |  | > 10 µg/mL | > 10 µg/mL | 0.009 µg/mL (≈ 0.0207 µM) | 36% |
| O=C(Nc1ccc(NC(=S)Nc2cc(Cl)ccc2Cl)cc1)c1csnn1 [Example 866, [1,2,3,]Thiadiazole-4-carboxylic acid {4-[3-(2,5-dichloro-phenyl)-thioureido]-phenyl}-amide] | >10 µg/mL | 50% | >10 µg/mL | 0.035 µg/mL (≈ 0.0825 µM) |  |  |  |  |
| O=C(Nc1ccc(NC(=S)NCc2ccc3c(c2)OCO3)cc1)c1csnn1 [Example 541] | >10 µg/mL |  | 7 µg/mL (≈ 16.9 µM) | 0.017 µg/mL (≈ 0.0411 µM) |  |  |  |  |
| O=C(Nc1ccc(NC(=S)Nc2ccc(Br)c(Cl)c2)cc1)c1ccccc1F [Example 965, N-{4-[3-(4-Bromo-3-chloro-phenyl)-thioureido]-phenyl} -2-fluoro-benzamide] |  |  |  |  |  | > 10 µg/mL | 0.008 µg/mL (≈ 0.0167 µM) | 36% |
| O=C(Nc1ccc(NC(=S)Nc2cccc(S(=O)(=O)CCO)c2)cc1)c1ccco1 [Example 1018, Furan-2-carboxylic acid (4-{3-[3-(2-hydroxy-ethanesulfonyl)-phenyl]-thioureido} -phenyl)-amide] |  |  |  |  | > 10 µg/mL | > 10 µg/mL | 0.4 µg/mL (≈ 0.898 µM) | 2% |
| O=C(Nc1ccc(NC(=S)Nc2ccc(NC(=O)c3ccco3)cc2)cc1Cl)c1ccccc1 [Example 403] | >15 µg/mL | 108% | 6 µg/mL (≈ 12.2 µM) | 0.09 µg/mL (≈ 0.183 µM) |  |  |  |  |
| O=C(Nc1ccc(NC(=S)Nc2ccc(Br)c(C(F)(F)F)c2)cc1)c1csnn1 [Example 548] | >lo |  | >10 µg/mL | 0.008 µg/mL (≈ 0.0159 µM) |  |  |  |  |

— US6426355B1, “Heterocyclic carboxamide-containing thiourea inhibitors of herpes viruses containing phenylenediamine group” (American Home Products, priority 1998, dated 2002)
